The source of these data is patent US20090169573A1, “T-Cell Stimulatory Peptides From The Melanoma-Associated Chondroitin Sulfate Proteoglycan And Their Use” (priority 2004, published 2009).

For one assay, the system named is CD8+ T-cells. Put plainly: CD8+ T-cell induction with TAT-MCSP-peptide-loaded dendritic cells, IFN-γ ELISA of microcultures. The note with it: donor 11325; long TAT-MCSP-peptide 10 μM; not with control peptide; FIG. 18. A general note: ELISA stands for enzyme-linked immunosorbent assay.
The subject of a further assay is CD4+ T-cells. The experiment in a line: CD4+ T-cell induction with peptide-loaded dendritic cells, IFN-γ ELISA of microcultures. The format is cell-based, human.
In another assay the test system is CD4+ T-cell clone 3. Put plainly: IFN-γ production of CD4+ T-cell clone 3 on peptide-pulsed autologous EBV-B cells (ELISA). The assay is classed as cell-based, human.
The test system of a further assay is HLA-DR11. Put plainly: HLA restriction of clone 25: blocking antibodies and EBV-B cell lines with different HLA class II molecules. The format is cell-based, human. The conditions noted are these: IFN-γ production. How it is done: FIG. 6: Autologous EBV-B cells (1.5×10^4) pulsed with 1 μM of the 16-mer MCSP peptide […] (SEQ ID NO:9) were used as stimulator cells in the presence of different blocking antibodies (anti-DR, anti-DQ or anti-DP). Also a control with no antibody (no Ab) was set up. All antibodies were used at a final concentration of 5 μg/ml each.
FIG. 7: 1.5×10^4 cells of several EBV-B cell lines (LP2-, LB1981-, R12-, PV6-, AC 42- and 4800-EBV) with different HLA class II molecules (HLA-DR11 positive or HLA-DR11 negative) were pulsed/loaded for 1 h with MCSP peptide […] (SEQ ID NO:9) (1 μM, white bar) and tested for recognition by the CD4^+ T cell clone. As control, the cells were pulsed in the absence of protein (black spotted bar).
(§1) 8. Determination of HLA restriction element utilized by MCSP-specific CD4^+ T-cell clone 25 and 3: To analyze the HLA restriction of CD4^+ T-cell clone 25 and 3, three monoclonal antibodies directed against anti-DR (L243; BD Biosciences, San Jose, USA), anti-DQ (CSPVL3; Immunotech) or anti-DP (B7/21; BD Biosciences, San Jose, USA) were used to test which one inhibited the recognition of antigen-presenting cells by the clone. First EBV-B cells (1.5×10^4 per round-bottomed microtiter plate well) were incubated for 1 h at 37° C., 8% CO2 in the presence of the peptide (SEQ ID NO:9 for clone 25, SEQ ID NO:48 for clone 3). The antibodies were added at a concentration of 5 ng/ml. The CD4^+ T-cell clone 25 or 3 was then added at 4×10^3 per well.
9. Determination of HLA-DR restriction element utilized by MCSP-specific CD4^+ T-cell clone 25: It was determined that cytokine secretion by the CD4^+ T-cell clone 25 occurred in response to EBV-B cells pulsed/loaded with MCSP-derived peptides restricted to HLA-DR. To further define the HLA-restriction element utilized by clone 25, additional EBV-B cell lines were used for peptide presentation as described above. In particular LP2-, LB1981-, R12-, PV6-, AC 42- and 4800-EBV which have with different HLA class II molecules (HLA-DR11 positive or HLA-DR11 negative) were used. They were pulsed/loaded for 1 h with 1 μM MCSP peptide […] […]

In a further assay the test system is CD4+ T-cell clone 25. The assay is classed as cell-based, human. The note with it: for recognition by clone 25 of overlapping 16-mer peptides: IFN-γ ELISA.
Another assay relates to HLA-DR 11. Put plainly: HLA restriction of clone 3: blocking antibodies and EBV-B cell lines with different HLA class II molecules. The assay is classed as cell-based, human. The note with it: peptide 5 μg/ml, IFN-γ production. How it is done:
FIG. 14: Autologous EBV-B cells (15,000) pulsed with 16-mer MCSP peptide (aa 1281-1296 (SEQ ID NO:48), 5 μg/ml) were used as stimulator cells in the presence of different blocking antibodies. All antibodies were used at a final concentration of 5 μg/ml each.
FIG. 15: Several EBV-B cell lines with different HLA class II molecules were pulsed with peptide MCSP1281-1296 (SEQ ID NO:48; 5 μg/ml) and tested for recognition (at 15,000 cells per well) by the CD4^+ T cell clone (4,000 cells per well).
as §1

Where [1] appears, read: autologous EBV-B cells pulsed 1 μM, 1 h, FIG. 4.

Description for CD8+ T-cells: After 3 weekly restimulations microcultures were tested for their IFN-γ production when stimulated with autologous EBV-B cells loaded with the TAT-MCSP peptide (SEQ ID NO:54) or a control peptide.
Aliquots of approximately 4,000 CD8^+ T-cells from each 96-well microculture were co-incubated with 15,000 stimulator cells and after 20 h the IFN-γ concentration in the supernatant was measured by ELISA. […] Bars represent standard deviations.
In order to isolate MCSP specific CD8^+ T cells, DCs were derived from monocytes of healthy donors using IL-4 and GM-CSF and loaded with the long TAT-MCSP-peptide of SEQ ID NO:54 at 20 μg/ml overnight so that potential T-cell epitopes within this peptide could be processed and presented by the cell. DCs were matured 6 h after peptide-loading by a cytokine cocktail (IL-1β, IL-6, TNF-α, PGE2) as described in Example 3 (b). Autologous CD8^+ T-cells were stimulated with protein-loaded mature DCs in 96-well-plates on the next day (FIG. 17). […]
Autologous EBV-B cells (5×10^5) were incubated for 18-20 h at 37° C. in the presence of 10 μg/ml or 20 μg/ml (compare Figure legends) of the MCSP peptide or an irrelevant control peptide as a negative control. […] After 18-20 h, supernatants were harvested and assessed for IFN-γ content using an ELISA assay with reagents from Medgenix Diagnostics-Biosource (Fleurus, Belgium). […]

Turning to “YARAAARQARAPPADIVFSVKSPPSAGYLVMVSRGALADEPP [SEQ ID NO:54]”, in the assay on CD8+ T-cells, the “IFN-γ production of CD8+ T-cells from microcultures after stimulation with peptide-loaded autologous EBV-B-cells” value was “specific IFN-γ production”. In the assay on CD4+ T-cells (DCs loaded with long TAT-MCSP-peptide at 20 μg/ml overnight, donor 11325), the “number of microcultures with peptide-specific CD4+ T-cells generated” value worked out at 3. Also, in the assay with CD4+ T-cells (from microculture F1, limiting dilution), the “number of peptide-specific T-cell clones generated” value worked out at 3. In the assay with CD4+ T-cell clone 3 (long TAT-MCSP-peptide 10 μM overnight, not with EBV-B-cells with or without control peptide, FIG. 11), the “Interferon-γ production of clone F1/3 after stimulation with peptide-loaded autologous EBV-B-cells” value is on record as “specific Interferon-γ production”.
Turning to VGQDVSVLFRVTGALQ [SEQ ID NO:9], the “presentation of peptide to clone 25 by EBV-B cell lines with different HLA class II typings” value in the assay on HLA-DR11 (LP2-, LB1981-, R12-, PV6-, AC 42- and 4800-EBV pulsed 1 μM 1 h, FIG. 7) is “only those expressing HLA-DRB1*11 (PV6-, AC 42- and 4800-EBV) were able to present the peptide to clone 25”. Further, in the assay on HLA-DR11 (peptide 1 μM, FIG. 6), the “recognition by clone 25 of peptide-loaded autologous EBV-B cells in presence of anti-HLA-DR antibody” value is on record as “completely abolished” and the “recognition by clone 25 of peptide-loaded autologous EBV-B cells in presence of antibodies against HLA-DP or HLA-DQ” value is “no influence”. Also, in the assay on CD4+ T-cell clone 25 (setting [1]), the “efficiency of stimulation of clone 25 among overlapping 16-mer peptides” value was “most efficiently” and the “recognition by clone 25 of overlapping 16-mer peptides” value is recorded as “recognized”. Further, the “peptide concentration found optimal to achieve CD4+ T-cell stimulation” value in the assay with CD4+ T-cell clone 25 (titration experiments, clone 25) worked out at 2 µg/mL.
As to “YARAAARQARA [SEQ ID NO:53, TAT PDT variant peptide, reference compound]”, the “recognition by clone 3 of overlapping peptides of the 42-mer” value with CD4+ T-cell clone 3 (autologous EBV-B cells pulsed 5 μg/ml, 1 h, IFN-γ ELISA, FIG. 12) is on record as “not”.
In the case of ETNAVGQDVSVLFRVT [SEQ ID NO:8], in the assay on CD4+ T-cell clone 25 (setting [1]), the “recognition by clone 25 of overlapping 16-mer peptides” value is on record as “recognized”.
Consider “LAQGSAMPILPANLSVETNAVGQDVSVLFRVTGALQFGELQK [SEQ ID NO:3]”, for which, in the assay with CD4+ T-cells (DCs loaded with the 42 mer overnight (50 μg/ml), matured by cytokine cocktail), the “number of microcultures with peptide-specific CD4+ T-cells generated” value turned out to be 2. In addition, the “number of peptide-specific T-cell clones obtained” value with CD4+ T-cells (from microculture C2, limiting dilution) came to 3. The “IFN-γ production of clone C2/25 after stimulation with peptide-loaded autologous EBV-B-cells” value in the assay on CD4+ T-cell clone 25 (42 mer 5 μM overnight, not with EBV-B-cells with or without control peptide, FIG. 3) is recorded as “specific IFN-γ production”.
As to GYLVMVSRGALA [SEQ ID NO:46], in the assay with CD4+ T-cell clone 3 (truncated peptides derived from SEQ ID NO:42, 5 μg/ml, IFN-γ ELISA, FIG. 13), the “recognition of truncated peptides by clone 3” value is listed as “shortest peptide efficiently recognized”.
PPSAGYLVMVSRGALA [SEQ ID NO:42]: in the assay on HLA-DR 11 (FIG. 14), the “recognition by clone 3 of peptide-loaded autologous EBV-B cells in presence of anti-HLA-DR antibody” value is on record as “abolished” and the “recognition by clone 3 of peptide-loaded autologous EBV-B cells in presence of antibodies against HLA-DP or HLA-DQ” value is listed as “no influence”. Moreover, the “presentation of peptide to clone 3 by EBV-B cell lines with different HLA class II typings” value with HLA-DR 11 (FIG. 15) is recorded as “only those expressing HLA-DR 11 were able to present the peptide to clone 3”. For the same sequence, in the assay on CD4+ T-cell clone 3 (autologous EBV-B cells pulsed 5 μg/ml, 1 h, FIG. 12), the “efficiency of stimulation of clone 3 among overlapping peptides” value was “most efficiently”.
